Source: a compilation of properties of binary mixtures (doi:10.1016/j.molliq.2012.02.004)

Assay: xn = mol fraction of the nth substance listed
Conditions: 101 kPa

`CC(C)O` + CCCCCC[n+]1ccn(C)c1.F[B-](F)(F)F showed a viscosity (293.15 K, x1 = 1) of 2.36 mPa·s, a viscosity (303.15 K, x1 = 1) of 1.77 mPa·s and a viscosity (313.15 K, x1 = 1) of 1.33 mPa·s. For the same compound, the viscosity (323.15 K, x1 = 1) was 1.01 mPa·s.

`CCCCCC[n+]1ccn(C)c1.F[B-](F)(F)F` + CC(C)O showed a viscosity (293.15 K, x2 = 0) of 230 mPa·s, a viscosity (293.15 K, x2 = 0.1493) of 113 mPa·s and a viscosity (293.15 K, x2 = 0.2289) of 78 mPa·s. The viscosity (293.15 K, x2 = 0.2992) was 57.1 mPa·s, the viscosity (293.15 K, x2 = 0.3752) was 41 mPa·s and the viscosity (293.15 K, x2 = 0.4942) was 24.9 mPa·s. The viscosity (293.15 K, x2 = 0.5845) was 16.8 mPa·s, the viscosity (293.15 K, x2 = 0.7067) was 10.05 mPa·s and the viscosity (293.15 K, x2 = 0.762) was 7.82 mPa·s. The viscosity (303.15 K, x2 = 0) was 130 mPa·s, the viscosity (303.15 K, x2 = 0.2289) was 48.2 mPa·s and the viscosity (303.15 K, x2 = 0.2992) was 36.1 mPa·s. It also gave a viscosity (303.15 K, x2 = 0.4942) of 16.9 mPa·s, a viscosity (303.15 K, x2 = 0.9165) of 2.65 mPa·s and a viscosity (313.15 K, x2 = 0) of 78 mPa·s. For the same compound, the viscosity (313.15 K, x2 = 0.1493) was 42.6 mPa·s, the viscosity (313.15 K, x2 = 0.2289) was 31.7 mPa·s and the viscosity (313.15 K, x2 = 0.3752) was 18.8 mPa·s. For the same compound, the viscosity (313.15 K, x2 = 0.4942) was 12.2 mPa·s, the viscosity (313.15 K, x2 = 0.5845) was 8.53 mPa·s and the viscosity (313.15 K, x2 = 0.7067) was 5.15 mPa·s. The viscosity (313.15 K, x2 = 0.9165) was 1.96 mPa·s, the viscosity (323.15 K, x2 = 0.1493) was 28.1 mPa·s and the viscosity (323.15 K, x2 = 0.3752) was 14.6 mPa·s. For the same compound, the viscosity (323.15 K, x2 = 0.4942) was 9.3 mPa·s, the viscosity (323.15 K, x2 = 0.5845) was 6.62 mPa·s and the viscosity (323.15 K, x2 = 0.7067) was 3.95 mPa·s. It also gave a viscosity (323.15 K, x2 = 0.762) of 3.04 mPa·s, a viscosity (323.15 K, x2 = 0.9165) of 1.5 mPa·s and a viscosity (333.15 K, x2 = 0.2289) of 16.3 mPa·s. The viscosity (333.15 K, x2 = 0.2992) was 13.2 mPa·s, the viscosity (333.15 K, x2 = 0.4942) was 7.04 mPa·s and the viscosity (333.15 K, x2 = 0.5845) was 5.06 mPa·s. It also gave a viscosity (333.15 K, x2 = 0.7067) of 3.05 mPa·s and a viscosity (333.15 K, x2 = 0.9165) of 1.02 mPa·s.
